# Values joined by “and” are separate entries in the source; they are usually repeats but may differ in a detail not shown here. Equal values may be shown once.
# Tested on: L-DOPA-induced dyskinesia in Parkinson's disease patients
# Assay: Unified Dyskinesia Rating Scale (UDysRS) after 150% L-DOPA challenge
# Settings: for UDysRS Parts 3 and 4 most severe, collected value, median / UDysRS Parts 1, 2, 3, and 4 average, absolute change from baseline, mean / UDysRS Parts 1, 2, 3, and 4 average, absolute change from baseline, median / UDysRS Parts 1, 2, 3, and 4 average, collected value, mean / UDysRS Parts 1, 2, 3, and 4 average, collected value, median / UDysRS Parts 1, 2, 3, and 4 average, relative change from baseline (%), mean / UDysRS Parts 1, 2, 3, and 4 average, relative change from baseline (%), median / UDysRS Parts 1, 2, 3, and 4 most severe, absolute change from baseline, mean / UDysRS Parts 1, 2, 3, and 4 most severe, absolute change from baseline, median / UDysRS Parts 1, 2, 3, and 4 most severe, collected value, mean / UDysRS Parts 1, 2, 3, and 4 most severe, collected value, median / UDysRS Parts 1, 2, 3, and 4 most severe, relative change from baseline (%), mean / UDysRS Parts 1, 2, 3, and 4 most severe, relative change from baseline (%), median / UDysRS Parts 3 and 4 average, absolute change from baseline, mean / UDysRS Parts 3 and 4 average, absolute change from baseline, median / UDysRS Parts 3 and 4 average, collected value, mean / UDysRS Parts 3 and 4 average, collected value, median / UDysRS Parts 3 and 4 average, relative change from baseline (%), mean / UDysRS Parts 3 and 4 average, relative change from baseline (%), median / UDysRS Parts 3 and 4 most severe, absolute change from baseline, mean / UDysRS Parts 3 and 4 most severe, absolute change from baseline, median / UDysRS Parts 3 and 4 most severe, collected value, mean / UDysRS Parts 3 and 4 most severe, relative change from baseline (%), mean / UDysRS Parts 3 and 4 most severe, relative change from baseline (%), median: per protocol analysis set, N = 15; for UDysRS Parts 3 + 4, highest score of assessment sessions, mean change from baseline / UDysRS Part 3 sum of items, average of assessment sessions, mean change from baseline / UDysRS Part 3 sum of items, highest score of assessment sessions, mean change from baseline / UDysRS Parts 3 + 4, average of assessment sessions, mean change from baseline / UDysRS Total (Parts 1 to 4), average of assessment sessions, mean change from baseline / UDysRS Total (Parts 1 to 4), highest score of assessment sessions, mean change from baseline: per-protocol set; for UDysRS Part 3 sum of items, average of assessment sessions, mean change from baseline: p < 0.05 vs placebo
# [1] = Visit 6 Clinic Efficacy Visit (Day 28)
# [2] = Visit 7 Clinic Efficacy Visit (Day 42)
# [3] = days 28 and 42, within NLX-112 group
# [4] = individual patients A-E co-treated with amantadine
# [5] = per-protocol set (n = 15), Baseline
# [6] = Δ D 28 (end of up-titration), p < 0.01 vs baseline
# [7] = Δ D 42 (end of stable dosing), p < 0.001 vs baseline
# [8] = Δ D 42 (end of stable dosing), p < 0.01 vs baseline
# Experimental: Patients were rated for dyskinesia at baseline and on days 28 (at end of up-titration period) and 42 (end of stable dosing period). Because the level of dyskinesia experienced by patients can vary over time, they were given 150% (i.e., 1.5×) of their regular L-DOPA dose (up to a maximum of 250 mg) as a challenge 30 min before each dyskinesia assessment to improve comparability between patients and between visits. Patients were filmed 30, 60 and 90 min after dosing with L-DOPA (˜5 min of filming each time). LID was assessed using the Unified Dyskinesia Rating Scale (UDysRS). Changes from baseline are shown for total score (i.e., Parts 1 to 4), for total objective score (i.e., Parts 3+4), and for the sum of Part 3 objective impairment assessment scores. Because objective LID assessment was carried out at 3 time-points (30, 60 and 90 min) following L-DOPA challenge, the above parameters were analyzed based on the most severe of the three scores as well as on the average score of the 3 time points.
# The patient took 150% of their normal L-DOPA dose 30 minutes prior to the start of efficacy assessments (UDysRS) at Day 1 (Visit 2), Day 28 (Visit 6) and Day 42 (Visit 7).
# The UDysRS is a rating instrument designed to assess the core features of dyskinesia in Parkinson's Disease. The UDysRS consists of 4 parts: • r. Part I, historical disability with regard to the patient's perceptions of the impact on activities of ADL of on-dyskinesia. • s. Part II, historical disability with regard to the patient's perceptions of the impact on ADL of off-dystonia. • t. Part III, objective impairment, which assesses severity of dyskinesia, affected body parts, and type of impairment (choreic vs. dystonic). • u. Part IV, objective disability, based on an evaluation of Part III activities.
# Each item in the UDysRS is scored from 0 to 4, with a possible maximum total score of 104.
# The UDysRS assessment would be performed at baseline (Day 1, Visit 2), Day 28 and Day 42 (Visits 6 and 7) starting approximately 30 minutes after the L-DOPA challenge on these days.
# The data for all 3 assessments performed at each visit would be entered in the eCRF and the Investigator will highlight which of the assessments, corresponding to the assessment where the patient had most severe dyskinesia, that would be used in the descriptive summaries of data.
# Change from baseline in the UDysRS total score to Visit 6 (Day 28) and Visit 7 (Day 42) respectively would be summarized using descriptive statistics. […] The same analysis would be done for UDysRS total objective score Part III and IV only.
# The baseline value of the dependent variable has been included in the model as a continuous covariate.
structure (smiles),measurement,setting,value
"Cc1ccc(CNCC2(F)CCN(C(=O)c3ccc(F)c(Cl)c3)CC2)nc1 [NLX-112, (3-chloro-4-fluoro-phenyl)-[4-fluoro-4-{[(5-methyl-pyridin-2-ylmethyl)-amino]-methyl}piperidin-1-yl]methanone]","UDysRS Parts 3 and 4 most severe, collected value, median",Visit 2 Baseline,14.0
same,"UDysRS Parts 1, 2, 3, and 4 average, absolute change from baseline, mean",[1],−4.82
same,"UDysRS Parts 1, 2, 3, and 4 average, absolute change from baseline, median",[1],−3.00
same,"UDysRS Parts 1, 2, 3, and 4 average, collected value, mean",[1],25.33
same,"UDysRS Parts 1, 2, 3, and 4 average, collected value, median",[1],25.33
same,"UDysRS Parts 1, 2, 3, and 4 average, relative change from baseline (%), mean",[1],−9.33%
same,"UDysRS Parts 1, 2, 3, and 4 average, relative change from baseline (%), median",[1],−10.6%
same,"UDysRS Parts 1, 2, 3, and 4 most severe, absolute change from baseline, mean",[1],−4.1
same,"UDysRS Parts 1, 2, 3, and 4 most severe, absolute change from baseline, median",[1],−2.0
same,"UDysRS Parts 1, 2, 3, and 4 most severe, collected value, mean",[1],27.5
same,"UDysRS Parts 1, 2, 3, and 4 most severe, collected value, median",[1],28.0
same,"UDysRS Parts 1, 2, 3, and 4 most severe, relative change from baseline (%), mean",[1],−10.2%
same,"UDysRS Parts 1, 2, 3, and 4 most severe, relative change from baseline (%), median",[1],−6.45%
same,"UDysRS Parts 3 and 4 average, absolute change from baseline, mean",[1],−2.49
same,"UDysRS Parts 3 and 4 average, absolute change from baseline, median",[1],−1.67
same,"UDysRS Parts 3 and 4 average, collected value, mean",[1],11.60
same,"UDysRS Parts 3 and 4 average, collected value, median",[1],10.33
same,"UDysRS Parts 3 and 4 average, relative change from baseline (%), mean",[1],−17.3%
same,"UDysRS Parts 3 and 4 average, relative change from baseline (%), median",[1],−20.0%
same,"UDysRS Parts 3 and 4 most severe, absolute change from baseline, mean",[1],−1.7
same,"UDysRS Parts 3 and 4 most severe, absolute change from baseline, median",[1],−1.0
same,"UDysRS Parts 3 and 4 most severe, collected value, mean",[1],13.8
same,"UDysRS Parts 3 and 4 most severe, collected value, median",[1],12.0
same,"UDysRS Parts 3 and 4 most severe, relative change from baseline (%), mean",[1],−15.8%
same,"UDysRS Parts 3 and 4 most severe, relative change from baseline (%), median",[1],−8.33%
same,"UDysRS Parts 1, 2, 3, and 4 average, absolute change from baseline, mean",[2],−6.51
same,"UDysRS Parts 1, 2, 3, and 4 average, absolute change from baseline, median",[2],−7.67
same,"UDysRS Parts 1, 2, 3, and 4 average, collected value, mean",[2],23.64
same,"UDysRS Parts 1, 2, 3, and 4 average, collected value, median",[2],23.00
same,"UDysRS Parts 1, 2, 3, and 4 average, relative change from baseline (%), mean",[2],−19.5%
same,"UDysRS Parts 1, 2, 3, and 4 average, relative change from baseline (%), median",[2],−21.9%
same,"UDysRS Parts 1, 2, 3, and 4 most severe, absolute change from baseline, mean",[2],−6.3
same,"UDysRS Parts 1, 2, 3, and 4 most severe, absolute change from baseline, median",[2],−8.0
same,"UDysRS Parts 1, 2, 3, and 4 most severe, collected value, mean",[2],25.3
same,"UDysRS Parts 1, 2, 3, and 4 most severe, collected value, median",[2],24.0
same,"UDysRS Parts 1, 2, 3, and 4 most severe, relative change from baseline (%), mean",[2],−19.0%
same,"UDysRS Parts 1, 2, 3, and 4 most severe, relative change from baseline (%), median",[2],−25.8%
same,"UDysRS Parts 3 and 4 average, absolute change from baseline, mean",[2],−3.31
same,"UDysRS Parts 3 and 4 average, absolute change from baseline, median",[2],−3.33
same,"UDysRS Parts 3 and 4 average, collected value, mean",[2],10.78
same,"UDysRS Parts 3 and 4 average, collected value, median",[2],9.67
same,"UDysRS Parts 3 and 4 average, relative change from baseline (%), mean",[2],−25.3%
same,"UDysRS Parts 3 and 4 average, relative change from baseline (%), median",[2],−31.5%
same,"UDysRS Parts 3 and 4 most severe, absolute change from baseline, mean",[2],−3.1
same,"UDysRS Parts 3 and 4 most severe, absolute change from baseline, median",[2],−4.0
same,"UDysRS Parts 3 and 4 most severe, collected value, mean",[2],12.4
same,"UDysRS Parts 3 and 4 most severe, collected value, median",[2],11.0
same,"UDysRS Parts 3 and 4 most severe, relative change from baseline (%), mean",[2],−21.0%
same,"UDysRS Parts 3 and 4 most severe, relative change from baseline (%), median",[2],−31.6%
same,"UDysRS sum of Part 3 items, average of all 3 assessments, NLX-112 vs placebo",day 28 and day 42,significantly greater change from baseline
same,"net reduction in UDysRS total score, more than placebo",day 42,3.9 points
same,"UDysRS sum of Part 3 items, most severe assessment, vs baseline",[3],significant reduction
same,"UDysRS total score based on the average of 3 assessments, vs baseline",[3],significant reduction
same,"UDysRS Part 3 + 4, Δ from baseline",[4],+3 and +2 and −11 and −6 (2×)
same,"UDysRS Total, Δ from baseline",[4],−2 and +7 and −11 and −8 and −6
same,amantadine-using patients with numerical reductions in UDysRS total score and total objective score,of the 5 amantadine-using patients on NLX-112,3
same,"UDysRS Part 3 sum of items, average of assessment sessions, mean",[5],21.5
same,"UDysRS Part 3 sum of items, highest score of assessment sessions, mean",[5],24.7
same,"UDysRS Parts 3 + 4, average of assessment sessions, mean",[5],14.1
same,"UDysRS Parts 3 + 4, highest score of assessment sessions, mean",[5],15.5
same,"UDysRS Total (Parts 1 to 4), average of assessment sessions, mean",[5],30.1
same,"UDysRS Total (Parts 1 to 4), highest score of assessment sessions, mean",[5],31.6
same,"UDysRS Parts 3 + 4, highest score of assessment sessions, mean change from baseline",Δ D 28 (end of up-titration),−1.7
same,"UDysRS Part 3 sum of items, average of assessment sessions, mean change from baseline","Δ D 28 (end of up-titration), p < 0.001 vs baseline",−5.5
same,"UDysRS Part 3 sum of items, highest score of assessment sessions, mean change from baseline",[6],−5.5
same,"UDysRS Parts 3 + 4, average of assessment sessions, mean change from baseline",[6],−2.5
same,"UDysRS Total (Parts 1 to 4), average of assessment sessions, mean change from baseline",[6],−4.8
same,"UDysRS Total (Parts 1 to 4), highest score of assessment sessions, mean change from baseline","Δ D 28 (end of up-titration), p < 0.05 vs baseline",−4.1
same,"UDysRS Part 3 sum of items, average of assessment sessions, mean change from baseline","Δ D 42 (end of stable dosing), p < 0.0001 vs baseline",−7.1
same,"UDysRS Part 3 sum of items, highest score of assessment sessions, mean change from baseline",[7],−7.8
same,"UDysRS Parts 3 + 4, average of assessment sessions, mean change from baseline",[7],−3.3
same,"UDysRS Total (Parts 1 to 4), average of assessment sessions, mean change from baseline",[7],−6.5
same,"UDysRS Parts 3 + 4, highest score of assessment sessions, mean change from baseline",[8],−3.1
same,"UDysRS Total (Parts 1 to 4), highest score of assessment sessions, mean change from baseline",[8],−6.3

# Reference: US20250295648A1 (priority 2024, published 2025)
